In ChEMBL document CHEMBL1781986, “Structure-activity relationships of pyrrole based S-nitrosoglutathione reductase inhibitors: pyrrole regioisomers and propionic acid replacement” (Bioorg Med Chem Lett, 2011):
Active and inactive are the calls of the source. The rule behind the calls is not given here.

Key:
[1] = Inhibition of GSNOR expressed in Escherichia coli using GSNO by plate method
[2] = biological target: Nociceptin receptor (Homo sapiens) (UniProt P41146); assay: Inhibition of human recombinant NOP receptor at 10 uM by radioligand binding assay
[3] = biological target: D(2) dopamine receptor (Homo sapiens) (UniProt P14416); assay: Inhibition of human recombinant D2S receptor at 10 uM by radioligand binding assay
[4] = biological target: Voltage-gated L-type calcium channel (Homo sapiens, UniProt Q13936+Q13698+Q01668+O60840); assay: Inhibition of human recombinant L-type Ca2+ channel at 10 uM by radioligand binding assay
[5] = biological target: Melanocortin receptor 4 (Homo sapiens) (UniProt P32245); assay: Inhibition of human recombinant MC4 receptor at 10 uM by radioligand binding assay
[6] = biological target: Muscarinic acetylcholine receptor M3 (Homo sapiens) (UniProt P20309); assay: Inhibition of human recombinant M3 receptor at 10 uM by radioligand binding assay
[7] = biological target: 5-hydroxytryptamine receptor 7 (Homo sapiens) (UniProt P34969); assay: Inhibition of human recombinant 5HT7 receptor at 10 uM by radioligand binding assay
[8] = biological target: 5-hydroxytryptamine receptor 5A (Homo sapiens) (UniProt P47898); assay: Inhibition of human recombinant 5HT5A receptor at 10 uM by radioligand binding assay
[9] = biological target: T1, C-X-C chemokine receptor type 2 (Homo sapiens) (UniProt P25025); assay: Inhibition of human recombinant CXCR2 receptor at 10 uM by radioligand binding assay
T1 sequence (whole entry): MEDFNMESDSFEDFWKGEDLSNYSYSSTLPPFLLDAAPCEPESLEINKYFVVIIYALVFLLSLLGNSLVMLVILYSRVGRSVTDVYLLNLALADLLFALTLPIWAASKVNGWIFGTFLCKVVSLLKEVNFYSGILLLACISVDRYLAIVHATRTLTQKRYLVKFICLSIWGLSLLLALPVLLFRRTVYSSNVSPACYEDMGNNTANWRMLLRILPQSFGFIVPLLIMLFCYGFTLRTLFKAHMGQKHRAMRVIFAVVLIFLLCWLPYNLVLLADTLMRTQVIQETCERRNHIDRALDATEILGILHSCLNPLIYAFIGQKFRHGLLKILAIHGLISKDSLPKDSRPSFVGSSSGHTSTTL

[10] = biological target: Kappa-type opioid receptor (Homo sapiens) (UniProt P41145); assay: Inhibition of human recombinant KOP receptor at 10 uM by radioligand binding assay
[11] = biological target: Histamine H1 receptor (Homo sapiens) (UniProt P35367); assay: Inhibition of human recombinant H1 receptor at 10 uM by radioligand binding assay
[12] = biological target: T2, Thromboxane A2 receptor (Homo sapiens) (UniProt P21731); assay: Inhibition of human recombinant TP receptor at 10 uM by radioligand binding assay
T2 sequence (whole entry): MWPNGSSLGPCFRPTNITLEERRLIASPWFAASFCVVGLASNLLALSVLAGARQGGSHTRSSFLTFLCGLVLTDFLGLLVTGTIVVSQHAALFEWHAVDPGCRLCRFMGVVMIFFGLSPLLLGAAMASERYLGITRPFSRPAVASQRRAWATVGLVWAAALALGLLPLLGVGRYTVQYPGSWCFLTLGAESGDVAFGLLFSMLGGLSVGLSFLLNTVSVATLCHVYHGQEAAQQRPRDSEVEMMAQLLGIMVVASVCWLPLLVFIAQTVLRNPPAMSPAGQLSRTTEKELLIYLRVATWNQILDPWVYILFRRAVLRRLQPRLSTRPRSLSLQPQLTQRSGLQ

[13] = biological target: Beta-2 adrenergic receptor (Homo sapiens) (UniProt P07550); assay: Inhibition of human recombinant beta2 receptor at 10 uM by radioligand binding assay
[14] = biological target: 5-hydroxytryptamine receptor 6 (Homo sapiens) (UniProt P50406); assay: Inhibition of human recombinant 5HT6 receptor at 10 uM by radioligand binding assay
[15] = biological target: T3, Neuromedin-K receptor (Homo sapiens) (UniProt P29371); assay: Inhibition of human recombinant NK3 receptor at 10 uM by radioligand binding assay
T3 sequence (whole entry): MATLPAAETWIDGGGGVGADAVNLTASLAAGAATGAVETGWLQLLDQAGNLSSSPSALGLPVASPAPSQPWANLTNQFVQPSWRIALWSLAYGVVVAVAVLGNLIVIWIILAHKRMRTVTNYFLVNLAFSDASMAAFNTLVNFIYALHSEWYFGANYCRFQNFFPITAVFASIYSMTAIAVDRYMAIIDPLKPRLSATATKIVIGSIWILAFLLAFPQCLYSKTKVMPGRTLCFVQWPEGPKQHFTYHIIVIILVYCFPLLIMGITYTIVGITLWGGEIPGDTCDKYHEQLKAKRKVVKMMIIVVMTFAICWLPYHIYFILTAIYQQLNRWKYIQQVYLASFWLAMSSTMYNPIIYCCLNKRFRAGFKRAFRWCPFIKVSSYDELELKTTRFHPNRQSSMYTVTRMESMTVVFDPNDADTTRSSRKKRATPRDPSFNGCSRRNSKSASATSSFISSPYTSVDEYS

[16] = biological target: T4, C-C chemokine receptor type 1 (Homo sapiens) (UniProt P32246); assay: Inhibition of human recombinant CCR1 receptor at 10 uM by radioligand binding assay
T4 sequence (whole entry): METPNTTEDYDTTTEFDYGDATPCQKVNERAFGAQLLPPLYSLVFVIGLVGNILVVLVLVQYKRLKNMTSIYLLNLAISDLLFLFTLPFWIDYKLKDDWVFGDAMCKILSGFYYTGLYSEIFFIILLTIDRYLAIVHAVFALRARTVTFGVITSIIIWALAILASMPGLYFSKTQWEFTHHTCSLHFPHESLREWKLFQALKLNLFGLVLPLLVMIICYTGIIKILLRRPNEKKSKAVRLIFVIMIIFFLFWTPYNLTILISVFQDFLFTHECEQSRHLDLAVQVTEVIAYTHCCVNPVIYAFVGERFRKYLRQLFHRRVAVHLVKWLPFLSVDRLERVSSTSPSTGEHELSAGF

[17] = biological target: Melatonin receptor type 1A (Homo sapiens) (UniProt P48039); assay: Inhibition of human recombinant MT1 receptor at 10 uM by radioligand binding assay
Melatonin receptor type 1A (Homo sapiens), sequence (P48039 whole entry): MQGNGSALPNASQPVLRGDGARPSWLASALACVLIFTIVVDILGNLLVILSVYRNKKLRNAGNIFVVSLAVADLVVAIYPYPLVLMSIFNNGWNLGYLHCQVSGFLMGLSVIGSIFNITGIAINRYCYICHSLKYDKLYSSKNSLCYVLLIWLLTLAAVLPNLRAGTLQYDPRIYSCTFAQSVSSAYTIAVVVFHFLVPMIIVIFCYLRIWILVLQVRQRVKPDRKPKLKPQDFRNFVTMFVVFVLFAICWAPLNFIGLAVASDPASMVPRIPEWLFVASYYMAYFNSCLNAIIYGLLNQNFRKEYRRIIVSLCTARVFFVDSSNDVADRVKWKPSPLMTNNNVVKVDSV

Melanocortin receptor 4 (Homo sapiens), sequence (P32245 whole entry): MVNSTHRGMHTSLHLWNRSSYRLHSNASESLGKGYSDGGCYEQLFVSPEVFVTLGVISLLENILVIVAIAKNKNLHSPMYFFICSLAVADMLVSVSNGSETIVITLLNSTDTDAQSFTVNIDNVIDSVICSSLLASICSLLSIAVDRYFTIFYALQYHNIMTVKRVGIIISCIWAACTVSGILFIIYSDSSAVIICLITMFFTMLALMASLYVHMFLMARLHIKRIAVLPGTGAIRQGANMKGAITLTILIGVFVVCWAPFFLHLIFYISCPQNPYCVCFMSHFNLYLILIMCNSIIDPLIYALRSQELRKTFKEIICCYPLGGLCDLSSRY
Nociceptin receptor (Homo sapiens), sequence (P41146 whole entry): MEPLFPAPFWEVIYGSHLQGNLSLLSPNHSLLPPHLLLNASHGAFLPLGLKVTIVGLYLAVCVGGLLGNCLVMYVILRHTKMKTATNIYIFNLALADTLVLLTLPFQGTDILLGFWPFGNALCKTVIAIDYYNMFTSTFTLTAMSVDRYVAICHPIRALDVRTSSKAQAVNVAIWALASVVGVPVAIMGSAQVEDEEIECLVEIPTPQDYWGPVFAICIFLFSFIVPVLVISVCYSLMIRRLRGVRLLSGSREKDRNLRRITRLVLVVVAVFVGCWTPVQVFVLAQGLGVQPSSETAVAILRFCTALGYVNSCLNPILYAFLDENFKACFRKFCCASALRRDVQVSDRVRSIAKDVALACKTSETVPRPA
5-hydroxytryptamine receptor 6 (Homo sapiens), sequence (P50406 whole entry): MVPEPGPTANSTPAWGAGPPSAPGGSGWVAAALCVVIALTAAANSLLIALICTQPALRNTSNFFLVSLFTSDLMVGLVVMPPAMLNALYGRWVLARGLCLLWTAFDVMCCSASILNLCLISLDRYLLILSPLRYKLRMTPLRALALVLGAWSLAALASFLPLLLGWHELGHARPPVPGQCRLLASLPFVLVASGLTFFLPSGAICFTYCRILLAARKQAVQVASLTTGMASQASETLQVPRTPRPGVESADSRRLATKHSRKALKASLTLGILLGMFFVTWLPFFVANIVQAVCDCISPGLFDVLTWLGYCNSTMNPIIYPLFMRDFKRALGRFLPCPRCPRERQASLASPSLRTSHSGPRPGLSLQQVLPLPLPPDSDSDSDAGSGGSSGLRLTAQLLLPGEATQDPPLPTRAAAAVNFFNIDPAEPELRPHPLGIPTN
5-hydroxytryptamine receptor 7 (Homo sapiens), sequence (P34969 whole entry): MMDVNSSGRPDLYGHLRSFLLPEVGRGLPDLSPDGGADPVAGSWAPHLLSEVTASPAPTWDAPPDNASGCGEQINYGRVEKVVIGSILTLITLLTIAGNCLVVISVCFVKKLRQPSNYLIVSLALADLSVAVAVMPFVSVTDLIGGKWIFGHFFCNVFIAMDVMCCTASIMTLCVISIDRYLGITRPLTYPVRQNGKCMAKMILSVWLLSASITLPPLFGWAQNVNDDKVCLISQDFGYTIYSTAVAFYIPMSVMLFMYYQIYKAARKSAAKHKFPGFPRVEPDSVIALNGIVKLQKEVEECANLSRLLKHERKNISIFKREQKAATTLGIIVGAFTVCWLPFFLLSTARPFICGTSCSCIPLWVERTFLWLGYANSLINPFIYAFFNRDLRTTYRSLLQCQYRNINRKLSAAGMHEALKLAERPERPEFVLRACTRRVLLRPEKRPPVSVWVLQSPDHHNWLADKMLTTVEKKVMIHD
5-hydroxytryptamine receptor 5A (Homo sapiens), sequence (P47898 whole entry): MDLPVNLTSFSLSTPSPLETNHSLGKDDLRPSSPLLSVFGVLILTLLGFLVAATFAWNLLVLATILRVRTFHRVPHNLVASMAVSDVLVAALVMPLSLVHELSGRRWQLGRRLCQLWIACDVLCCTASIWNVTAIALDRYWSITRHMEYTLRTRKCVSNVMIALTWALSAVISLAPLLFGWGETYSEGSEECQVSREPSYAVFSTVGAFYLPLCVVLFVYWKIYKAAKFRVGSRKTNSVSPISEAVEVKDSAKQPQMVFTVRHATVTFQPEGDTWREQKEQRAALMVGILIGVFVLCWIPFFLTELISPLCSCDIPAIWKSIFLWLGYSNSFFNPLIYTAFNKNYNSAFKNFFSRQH
Kappa-type opioid receptor (Homo sapiens), sequence (P41145 whole entry): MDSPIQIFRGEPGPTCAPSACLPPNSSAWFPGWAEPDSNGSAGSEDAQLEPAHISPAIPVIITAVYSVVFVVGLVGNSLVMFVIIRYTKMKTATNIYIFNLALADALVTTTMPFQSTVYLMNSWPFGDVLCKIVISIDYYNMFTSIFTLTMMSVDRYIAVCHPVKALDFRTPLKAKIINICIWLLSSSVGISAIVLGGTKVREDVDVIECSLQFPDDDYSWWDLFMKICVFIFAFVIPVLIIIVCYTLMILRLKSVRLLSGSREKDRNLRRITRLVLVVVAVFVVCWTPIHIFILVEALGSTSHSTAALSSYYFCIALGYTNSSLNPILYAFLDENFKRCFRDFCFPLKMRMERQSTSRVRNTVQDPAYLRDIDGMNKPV
Muscarinic acetylcholine receptor M3 (Homo sapiens), sequence (P20309 whole entry, looked up): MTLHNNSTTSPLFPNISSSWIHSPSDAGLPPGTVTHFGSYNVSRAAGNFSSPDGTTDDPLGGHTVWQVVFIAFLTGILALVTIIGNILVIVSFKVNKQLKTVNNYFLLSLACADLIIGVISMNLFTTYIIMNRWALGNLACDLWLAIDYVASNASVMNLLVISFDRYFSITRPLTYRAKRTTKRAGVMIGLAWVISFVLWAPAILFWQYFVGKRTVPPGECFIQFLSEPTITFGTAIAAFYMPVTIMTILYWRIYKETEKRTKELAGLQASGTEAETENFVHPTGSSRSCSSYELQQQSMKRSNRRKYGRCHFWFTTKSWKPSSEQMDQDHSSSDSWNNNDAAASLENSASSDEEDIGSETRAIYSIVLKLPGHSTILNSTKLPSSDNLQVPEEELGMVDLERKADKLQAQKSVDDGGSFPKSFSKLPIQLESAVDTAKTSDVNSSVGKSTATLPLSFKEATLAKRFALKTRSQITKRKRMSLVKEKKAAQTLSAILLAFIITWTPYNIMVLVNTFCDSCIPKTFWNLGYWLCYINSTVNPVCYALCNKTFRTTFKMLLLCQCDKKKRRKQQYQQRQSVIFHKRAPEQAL
D(2) dopamine receptor (Homo sapiens), sequence (P14416 whole entry): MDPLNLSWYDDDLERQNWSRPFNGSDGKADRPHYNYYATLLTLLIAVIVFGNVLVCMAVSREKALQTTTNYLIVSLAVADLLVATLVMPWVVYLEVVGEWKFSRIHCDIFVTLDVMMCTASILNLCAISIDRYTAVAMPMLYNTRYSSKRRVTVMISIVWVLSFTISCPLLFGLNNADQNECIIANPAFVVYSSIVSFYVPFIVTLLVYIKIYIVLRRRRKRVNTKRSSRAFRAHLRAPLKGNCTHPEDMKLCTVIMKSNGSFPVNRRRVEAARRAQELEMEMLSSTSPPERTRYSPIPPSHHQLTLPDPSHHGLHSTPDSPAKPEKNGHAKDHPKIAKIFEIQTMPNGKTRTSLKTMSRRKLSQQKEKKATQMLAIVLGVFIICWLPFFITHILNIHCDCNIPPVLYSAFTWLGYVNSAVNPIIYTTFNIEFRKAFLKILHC
Beta-2 adrenergic receptor (Homo sapiens), sequence (P07550 whole entry, looked up): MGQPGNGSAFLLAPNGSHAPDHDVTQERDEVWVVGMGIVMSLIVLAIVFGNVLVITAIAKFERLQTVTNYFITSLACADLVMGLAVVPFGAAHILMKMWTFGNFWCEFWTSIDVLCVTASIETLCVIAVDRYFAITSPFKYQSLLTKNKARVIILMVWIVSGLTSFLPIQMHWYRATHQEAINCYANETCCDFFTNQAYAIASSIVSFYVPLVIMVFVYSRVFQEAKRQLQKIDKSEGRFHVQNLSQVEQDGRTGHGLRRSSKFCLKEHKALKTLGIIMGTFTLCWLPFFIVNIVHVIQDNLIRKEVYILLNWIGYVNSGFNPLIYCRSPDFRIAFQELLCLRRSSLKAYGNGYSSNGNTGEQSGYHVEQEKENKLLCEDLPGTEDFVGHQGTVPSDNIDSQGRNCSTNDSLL
Histamine H1 receptor (Homo sapiens), sequence (P35367 whole entry): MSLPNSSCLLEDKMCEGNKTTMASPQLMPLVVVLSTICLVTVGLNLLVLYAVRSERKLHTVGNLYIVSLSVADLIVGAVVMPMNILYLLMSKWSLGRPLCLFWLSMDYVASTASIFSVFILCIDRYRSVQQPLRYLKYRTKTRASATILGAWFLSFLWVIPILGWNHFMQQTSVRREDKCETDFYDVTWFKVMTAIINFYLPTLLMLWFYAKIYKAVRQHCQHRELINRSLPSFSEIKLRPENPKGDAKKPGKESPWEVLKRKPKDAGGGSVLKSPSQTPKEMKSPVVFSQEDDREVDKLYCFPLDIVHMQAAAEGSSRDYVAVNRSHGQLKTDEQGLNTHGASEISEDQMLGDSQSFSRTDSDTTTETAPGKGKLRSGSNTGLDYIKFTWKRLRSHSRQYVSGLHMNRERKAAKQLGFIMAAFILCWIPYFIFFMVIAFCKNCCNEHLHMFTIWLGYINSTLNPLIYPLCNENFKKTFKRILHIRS

SMILES	IC50 [1] [µM]	inhibition [2]	inhibition [3]	inhibition (INH) [4]	inhibition [5]	inhibition [6]	inhibition [7]	inhibition [8]	inhibition [9]	inhibition [10]	inhibition [11]	inhibition [12]	inhibition [13]	inhibition [14]	inhibition [15]	inhibition [16]	inhibition [17]
Cc1cc(C(N)=O)ccc1-n1c(CCC(=O)O)ccc1-c1ccc(-n2ccnc2)cc1 [N6022]	0.01	inactive	inactive	Not Active	inactive	inactive	inactive	inactive	inactive	inactive	inactive	inactive	inactive	inactive	inactive	inactive	inactive
Cc1cc(C(N)=O)ccc1-c1c(-c2ccc(-n3ccnc3)cc2)ccn1CCC(=O)O	0.035	inactive	inactive	Not Active	inactive	inactive	inactive	inactive	inactive	inactive	inactive	inactive	inactive	inactive	inactive	inactive	inactive
Cc1cc(C(N)=O)ccc1-c1c(CCC(=O)O)ccn1-c1ccc(-n2ccnc2)cc1	0.0099	inactive	inactive	Not Active	inactive	inactive	inactive	inactive	inactive	inactive	inactive	inactive	inactive	inactive	inactive	inactive	inactive
COc1ccc(-c2ccn(-c3ccc(C(=O)O)c(O)c3)c2-c2ccc(C(N)=O)cc2C)cc1	–	Active	Active	Active	Active	Active	Active	Active	Active	Active	Active	Active	Active	Active	Active	Active	Active
COc1ccc(-c2ccn(-c3ccc(O)c([N+](=O)[O-])c3)c2-c2ccc(C(N)=O)cc2C)cc1	–	Active	Active	Active	Active	Active	Active	Active	Active	Active	Active	Active	Active	Active	Active	Active	Active
